Our source for the Ki and Kb values is patent US12187727B2, “Methods for antagonizing a melanocortin 4 receptor” (Pfizer Inc., priority 2020, dated 2025).

Molecules are shown by their SMILES. Like-named read-outs stand apart in the source and are kept apart here.

In experiment [1] the target is hMC4R (Homo sapiens (Human), UniProt P32245). Kind of experiment: In vitro binding affinity assay using hMC4R (radioligand competition binding, [125I]-(Nle4, D-Phe7)-α-MSH). The settings on record: geometric mean. How it is done: Example AA. In Vitro Binding Affinity Assay Using hMC4R
Chain of hMC4R (P32245 whole entry): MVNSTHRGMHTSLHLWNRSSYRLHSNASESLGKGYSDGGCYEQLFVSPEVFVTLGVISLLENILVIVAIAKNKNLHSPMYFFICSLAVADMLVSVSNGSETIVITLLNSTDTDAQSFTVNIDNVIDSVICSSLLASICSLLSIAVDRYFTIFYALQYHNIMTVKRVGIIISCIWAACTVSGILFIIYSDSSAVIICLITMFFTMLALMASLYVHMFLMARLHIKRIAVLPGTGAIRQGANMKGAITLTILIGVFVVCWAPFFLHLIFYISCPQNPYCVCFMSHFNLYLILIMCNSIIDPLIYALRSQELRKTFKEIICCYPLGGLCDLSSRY
The binding affinity of test compounds at the […] (hMC4R) was assessed using a radioligand competition binding assay. […] Cell membranes were bulked and frozen until the assay was performed.
Compounds were solubilized in 100% dimethyl sulfoxide (DMSO) to a concentration of 30 mM. A 10-point intermediate dilution series using half log dilutions was created in 100% DMSO with a top concentration of 0.03 mM. […] The final compound range in the assay was 300 nM to 0.01 nM with a final DMSO concentration of 1%. […] The exact concentration of radioligand used for each experiment was determined by liquid scintillation counting and adjusted if necessary.
Frozen hMC4R cell membranes were thawed and Dounce homogenized. Homogenates were resuspended in assay buffer to a concentration of 2 μg per well. […] The plates were incubated for 2 hours at room temperature.
The raw data (expressed as counts per minute) were analyzed using ActivityBase (IDBS Data Management Software). […] Equilibrium dissociation constant for inhibitor of ligand and receptor interaction (Ki) values were then calculated from the IC50 values using the Cheng-Prusoff equation: Ki=IC50/(1+([L]/Kd)), where [L] is the concentration of the radioligand used in the experiment and Kd is the affinity of the radioligand (determined in separate saturation experiments).

For experiment [2], the target named is human Melanocortin-4 receptor (MC4R) (Homo sapiens (Human), UniProt P32245). In words: Functional in vitro MC4R antagonist potency assay (cAMP HTRF in CHO cells). It counts as cell-based. The following applies: read-out: Kb (nM) Antagonist geometric mean. The procedure, abridged:
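CHO cells stably expressing human MC4R were preincubated 30 min at 37 °C with compound ([…], 0.1% DMSO), then stimulated 30 min with EC80 αMSH (200 nM). Intracellular cAMP quantified by HTRF competitive immunoassay and normalized to agonist-stimulated and vehicle-only wells.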

Where [3] appears, read: read-out: Ki (nM) geometric mean.

Chain of human Melanocortin-4 receptor (MC4R) (P32245 whole entry): as above

For the molecule `COc1cc([C@@H](C)C(=O)N2CCC3(CCc4cc(-c5nnn(C)n5)c(C)nc4N3)C2)c(Cl)cn1` (single isomer, unassigned) [Example 1], the Ki in experiment [1] (setting [3]) was 0.21 nM. For the same molecule, in experiment [2], the Kb came out at 0.049 nM. Take `COc1cc([C@@H](C)C(=O)N2CCC3(CCc4cc(-c5nnn(C)n5)c(C)nc4N3)C2)c(Cl)cn1` (single isomer, unassigned) [Example 2]: the Ki in experiment [1] (setting [3]) came out at 4.5 nM. Also, the Kb in experiment [2] was found to be 1.2 nM.

`Cc1nc2c(cc1-c1ncccn1)CC[C@@]1(CCN(C(=O)C(C)c3ccc(OC(F)F)nc3)C1)N2` (single isomer, unassigned) [Example 6]: the Ki in experiment [1] (setting [3]) was found to be 0.44 nM. Moreover, the Kb in experiment [2] is 8.5 nM. The corresponding values for `Cc1nc2c(cc1-c1ncccn1)CC[C@@]1(CCN(C(=O)C(C)c3ccc(C(F)(F)F)cc3)C1)N2` (single isomer, unassigned) [Example 7] are 0.62 nM and 8.1 nM. As to `Cc1nc2c(cc1-c1ncccn1)CC[C@@]1(CCN(C(=O)C(C)c3ccc(C(F)(F)F)cc3)C1)N2` (single isomer, unassigned) [Example 8], the Ki in experiment [1] (setting [3]) was 76 nM. For the same molecule, in experiment [2], the antagonist dissociation constant (Kb) was over 95 nM. In the case of `COc1cc([C@@H](C)C(=O)N2CCC3(CCc4cc(-c5cnn(C)c5)c(C)nc4N3)C2)c(F)cn1` (single isomer, unassigned) [Example 16], in experiment [1] (setting [3]), the Ki is 0.36 nM. Besides, in experiment [2], the Kb amounted to 0.88 nM. The corresponding values for `COc1cc([C@@H](C)C(=O)N2CCC3(CCc4cc(-c5cnn(C)c5)c(C)nc4N3)C2)c(F)cn1` (single isomer, unassigned) [Example 17] are 69 nM and over 64 nM.

In the case of `Cc1nc2c(cc1-c1cnn(C)c1)CCC1(CCN(C(=O)Cc3ccc(F)cc3)C1)N2` (single isomer, unassigned) [Example 19, 2-(4-fluorophenyl)-1-[7-methyl-6-(1-methyl-1H-pyrazol-4-yl)-3,4-dihydro-1H-spiro[1,8-naphthyridine-2,3′-pyrrolidin]-1′-yl]ethan-1-one], the Ki in experiment [1] (setting [3]) was over 220 nM. Regarding `Cc1nc2c(cc1-c1cnn(C)c1)CCC1(CCN(C(=O)Cc3ccc(F)cc3)C1)N2` (single isomer, unassigned) [Example 20, 2-(4-fluorophenyl)-1-[7-methyl-6-(1-methyl-1H-pyrazol-4-yl)-3,4-dihydro-1H-spiro[1,8-naphthyridine-2,3′-pyrrolidin]-1′-yl]ethan-1-one], the Ki in experiment [1] (setting [3]) worked out at 0.6 nM. Take `COc1cc([C@@H](C)C(=O)N2CC[C@@]3(CCc4ccc(C)nc4N3)C2)nc(C)n1` (single isomer, unassigned) [Example 24, 2-(6-methoxy-2-methylpyrimidin-4-yl)-1-(7-methyl-3,4-dihydro-1H-spiro[1,8-naphthyridine-2,3′-pyrrolidin]-1′-yl)propan-1-one]: in experiment [1] (setting [3]), the Ki amounted to 77 nM. The Kb in experiment [2] was over 97 nM. The corresponding values for `COc1cc([C@@H](C)C(=O)N2CC[C@@]3(CCc4ccc(C)nc4N3)C2)nc(C)n1` (single isomer, unassigned) [Example 25, 2-(6-methoxy-2-methylpyrimidin-4-yl)-1-(7-methyl-3,4-dihydro-1H-spiro[1,8-naphthyridine-2,3′-pyrrolidin]-1′-yl)propan-1-one] are 220 nM and over 97 nM. The corresponding values for `COc1cc([C@@H](C)C(=O)N2CC[C@@]3(CCc4ccc(C)nc4N3)C2)nc(C)n1` (single isomer, unassigned) [Example 26, 2-(6-methoxy-2-methylpyrimidin-4-yl)-1-(7-methyl-3,4-dihydro-1H-spiro[1,8-naphthyridine-2,3′-pyrrolidin]-1′-yl)propan-1-one] are 210 nM and over 97 nM. The corresponding values for `Cc1nc2c(cc1-c1ncccn1)CC[C@@]1(CCN(C(=O)[C@H](C)c3ccc(Cl)cc3Cl)C1)N2` (single isomer, unassigned) [Example 34] are 0.9 nM and 4.2 nM.

As to `COc1cc([C@@H](C)C(=O)N2CC[C@@]3(CCc4cc(-c5ncccn5)c(C)nc4N3)C2)c(C(F)F)cn1` (single isomer, unassigned) [Example 37], the Ki in experiment [1] (setting [3]) was found to be 180 nM. Same read-out and setting: with `Cc1nc2c(cc1-c1ncccn1)CC[C@@]1(CCN(C(=O)[C@H](C)c3cc(C(F)(F)F)ncc3Cl)C1)N2` (single isomer, unassigned) [Example 38] the figure was over 200 nM; with `COc1ccc([C@@H](C)C(=O)N2CC[C@@]3(CCc4cc(-c5ncccn5)c(C)nc4N3)C2)cc1F` (single isomer, unassigned) [Example 43], 43 nM; with `COc1cc([C@](C)(F)C(=O)N2CC[C@@]3(CCc4cc(-c5ncccn5)c(C)nc4N3)C2)ccn1` (single isomer, unassigned) [Example 47], 20 nM.

`Cc1nc2c(cc1-c1ncccn1)CC[C@@]1(CCN(C(=O)[C@H](C)c3cc(OC(F)F)ncc3Cl)C1)N2` (single isomer, unassigned) [Example 59]: the Ki in experiment [1] (setting [3]) came out at 99 nM. In the case of `COc1cc(OC(F)F)cc([C@@H](C)C(=O)N2CC[C@@]3(CCc4cc(-c5ncccn5)c(C)nc4N3)C2)c1` (single isomer, unassigned) [Example 61], the inhibitory constant (Ki) in experiment [1] (setting [3]) came out at 40 nM. As to `Cc1nc2c(cc1-c1ncccn1)CC[C@@]1(CCN(C(=O)C(C)c3cc(OC(F)(F)F)ncc3Cl)C1)N2` (single isomer, unassigned) [Example 63], the Ki in experiment [1] (setting [3]) was found to be 94 nM. The same measure, in the same setting: next, `Cc1nc2c(cc1-c1ncccn1)CC[C@@]1(CCN(C(=O)[C@H](C)c3cc(OC(F)(F)F)ncc3F)C1)N2` (single isomer, unassigned) [Example 75]: 180 nM; `Cc1nc2c(cc1-c1ncccn1)CC[C@@]1(CCN(C(=O)[C@H](C)c3cc(OC(F)F)ncc3F)C1)N2` (single isomer, unassigned) [Example 77]: 84 nM. As to `Cc1nc2c(cc1-c1ncccn1)CC[C@@]1(CCN(C(=O)[C@H](C)c3cc(C(F)(F)F)ncc3F)C1)N2` (single isomer, unassigned) [Example 79], the Ki in experiment [1] (setting [3]) was over 250 nM. As for `Cc1nc2c(cc1-c1ncccn1)CC[C@@]1(CCN(C(=O)[C@H](C)c3cc(N(C)C)ncc3F)C1)N2` (single isomer, unassigned) [Example 82], the Ki in experiment [1] (setting [3]) is 120 nM. On to `COc1cc([C@@H](C)C(=O)N2CC[C@@]3(CCc4cc(-c5ncccn5)c(C)nc4N3)C2)cc(OC)n1` (single isomer, unassigned) [Example 84], for which the Ki in experiment [1] (setting [3]) was 52 nM. On the same count and under the same terms, next, `COc1ncc(Cl)c([C@@H](C)C(=O)N2CC[C@@]3(CCc4cc(-c5ncccn5)c(C)nc4N3)C2)n1` (single isomer, unassigned) [Example 85]: over 250 nM; `COc1ncc(Cl)c([C@@H](C)C(=O)N2CC[C@@]3(CCc4cc(-c5ncccn5)c(C)nc4N3)C2)n1` (single isomer, unassigned) [Example 86]: 2.3 nM. Same read-out and setting: next, `COc1cc(OC)cc([C@@H](C)C(=O)N2CC[C@@]3(CCc4cc(-c5cnn(C)c5)c(C)nc4N3)C2)c1` (single isomer, unassigned) [Example 91]: 17 nM. Regarding `COc1cc(OC)cc([C@@H](C)C(=O)N2CC[C@@]3(CCc4ccc(C)nc4N3)C2)c1` (single isomer, unassigned) [Example 97], the Ki in experiment [1] (setting [3]) was 100 nM. Same read-out and setting: next, `COc1cc([C@@H](C)C(=O)N2CC[C@@]3(CCc4ccc(C)nc4N3)C2)c(F)cn1` (single isomer, unassigned) [Example 99]: 81 nM; `COc1cc([C@@H](C)C(=O)N2CC[C@@]3(CCc4ccc(C)nc4N3)C2)c(Cl)cn1` (single isomer, unassigned) [Example 101]: 110 nM.

For the molecule `COc1cc([C@@H](C)C(=O)N2CC[C@@]3(CCc4cc(Cl)c(C)nc4N3)C2)c(F)cn1` (single isomer, unassigned) [Example 103], the Ki in experiment [1] (read-out: Ki (nM) geometric) is over 250 nM. The same measure, in the same setting: next, `Cc1nc2c(cc1-c1nnn(C)n1)CC[C@@]1(CCN(C(=O)[C@H](C)c3ccc(C(F)(F)F)cc3)C1)N2` (single isomer, unassigned) [Example 110]: 29 nM; `COc1cc([C@@H](C)C(=O)N2CC[C@@]3(CCc4cc(-c5nnn(C)n5)c(C)nc4N3)C2)ccn1` (single isomer, unassigned) [Example 126]: 140 nM; `COc1ncc(F)c([C@@H](C)C(=O)N2CC[C@@]3(CCc4cc(-c5nc6ccccn6n5)c(C)nc4N3)C2)n1` (single isomer, unassigned) [Example 133]: 63 nM. On the same count and under the same terms, with `COc1cc([C@@H](C)C(=O)N2CC[C@@]3(CCc4cc(-c5ncccn5)c(C)nc4N3)C2)cc(OC(F)F)n1` (single isomer, unassigned) [Example 193] the figure was 28 nM; with `COc1cc([C@@H](C)C(=O)N2CC[C@@]3(CCc4cc(-c5nc(N(C)C)cc(C(F)(F)F)n5)c(C)nc4N3)C2)c(F)cn1` [Example 185, (2R)-1-{(2S)-6-[4-(dimethylamino)-6-(trifluoromethyl)pyrimidin-2-yl]-7-methyl-3,4-dihydro-1H-spiro[1,8-naphthyridine-2,3′-pyrrolidin]-1′-yl}-2-(5-fluoro-2-methoxypyridin-4-yl)propan-1-one], 5.5 nM.
